Measurements as given in the supplement of paper PMC13380429.

Tests used:
Conditions in all cases: 72 h
Caco-2 [1] = test: cell viability relative to DMSO; higher = less toxic
Calu-3 [2] = test: as above
HepG2 [3] = test: as above
U2OS [4] = test: as above
Vero E6 [5] = test: as above
Caco-2 [6] = test: relative viability EC50 (midpoint between 100% and the lowest measured viability); higher = less toxic
Calu-3 [7] = test: as above
HepG2 [8] = test: as above
U2OS [9] = test: as above
Vero E6 [10] = test: as above
Caco-2 [11] = test: drug sensitivity score (DSS) for viability; higher = more toxic; extreme values may be limits of the assay
Calu-3 [12] = test: as above
HepG2 [13] = test: as above
U2OS [14] = test: as above
Vero E6 [15] = test: as above

Row | SMILES | cell viability (Caco-2 [1]; 1 nM) [%] | cell viability (Caco-2 [1]; 10 nM) [%] | cell viability (Caco-2 [1]; 100 nM) [%] | cell viability (Caco-2 [1]; 1000 nM) [%] | cell viability (Caco-2 [1]; 10000 nM) [%] | cell viability (Calu-3 [2]; 1 nM) [%] | cell viability (Calu-3 [2]; 10 nM) [%] | cell viability (Calu-3 [2]; 100 nM) [%] | cell viability (Calu-3 [2]; 1000 nM) [%] | cell viability (Calu-3 [2]; 10000 nM) [%] | cell viability (HepG2 [3]; 1 nM) [%] | cell viability (HepG2 [3]; 10 nM) [%] | cell viability (HepG2 [3]; 100 nM) [%] | cell viability (HepG2 [3]; 1000 nM) [%] | cell viability (HepG2 [3]; 10000 nM) [%] | cell viability (U2OS [4]; 1 nM) [%] | cell viability (U2OS [4]; 10 nM) [%] | cell viability (U2OS [4]; 100 nM) [%] | cell viability (U2OS [4]; 1000 nM) [%] | cell viability (U2OS [4]; 10000 nM) [%] | cell viability (Vero E6 [5]; 1 nM) [%] | cell viability (Vero E6 [5]; 10 nM) [%] | cell viability (Vero E6 [5]; 100 nM) [%] | cell viability (Vero E6 [5]; 1000 nM) [%] | cell viability (Vero E6 [5]; 10000 nM) [%] | relative viability EC50 (Caco-2 [6]) [µM] | relative viability EC50 (Calu-3 [7]) [µM] | relative viability EC50 (HepG2 [8]) [µM] | relative viability EC50 (U2OS [9]) [µM] | relative viability EC50 (Vero E6 [10]) [µM] | drug sensitivity score (Caco-2 [11]) | drug sensitivity score (Calu-3 [12]) | drug sensitivity score (HepG2 [13]) | drug sensitivity score (U2OS [14]) | drug sensitivity score (Vero E6 [15])
1 | Clc1cccc(Nc2nnc(-c3ccccc3)c3ccccc23)c1 [MY-5445] | 93 | 104 | 94.7 | 104 | 97.9 | 95.2 | 97.7 | 88.2 | 104 | 104 | 104 | 98.4 | 107 | 104 | 103 | 95 | 98.2 | 95.6 | 99.8 | 101 | 96.6 | 96.7 | 95.8 | 92.1 | 106 | > 10 | > 10 | > 10 | > 10 | > 10 | 0 | 0 | 0 | 0 | 0
2 | C[N+]1(C)CCc2cc3c(cc2[C@H]1[C@@H]1OC(=O)c2c1ccc1c2OCO1)OCO3 [bicuculline-methochloride-(-)] | 101 | 118 | 98 | 81.9 | 97.3 | 89 | 104 | 85 | 88 | 110 | 101 | 98.7 | 93.9 | 92.8 | 108 | 95.1 | 99.9 | 99.2 | 98.9 | 100 | 98.6 | 97 | 99.2 | 103 | 100 | > 10 | > 10 | > 10 | > 10 | > 10 | 2.5 | 0 | 0 | 0 | 0
3 | COCCc1ccc(OCC(O)CNC(C)C)cc1 (stereo not given) [metoprolol] | 102 | 136 | 91.8 | 110 | 94.4 | 93.1 | 106 | 93.2 | 101 | 98.7 | 112 | 79.4 | 122 | 79.7 | 93.6 | 103 | 109 | 99 | 108 | 104 | 97.7 | 97.1 | 96.1 | 93.6 | 96.2 | > 10 | > 10 | > 10 | > 10 | > 10 | 0 | 0 | 0 | 0 | 0
4 | CCNC1=Nc2ccc(Cl)cc2C(C)(c2ccccc2)O1 (stereo not given) [etifoxine] | 90.1 | 102 | 96.1 | 92.2 | 97.3 | 94.4 | 97.2 | 102 | 102 | 90.7 | 95.7 | 100 | 101 | 107 | 95.3 | 92.1 | 96.9 | 99.8 | 98.3 | 98 | 94.8 | 98.1 | 95.5 | 99.3 | 112 | > 10 | > 10 | > 10 | > 10 | > 10 | 0 | 0 | 0 | 0 | 0
5 | CC[N+](CC)(CC(=O)Nc1c(C)cccc1C)Cc1ccccc1 [denatonium-benzoate] | 100 | 102 | 99.8 | 110 | 112 | 96.7 | 101 | 98.3 | 92.8 | 105 | 100 | 99.3 | 108 | 100 | 116 | 91 | 96.1 | 95.9 | 103 | 104 | 95.1 | 99.2 | 95.3 | 88.9 | 111 | > 10 | > 10 | > 10 | > 10 | > 10 | 0 | 0 | 0 | 0 | 0
6 | NC(=O)c1ccc(-c2nc(-c3ccccn3)c(-c3ccc4c(c3)OCO4)[nH]2)cc1 | 89.3 | 106 | 92.5 | 106 | 101 | 92.2 | 95 | 91.9 | 110 | 103 | 107 | 93.6 | 103 | 96 | 83.9 | 91.2 | 96.6 | 96 | 97.1 | 92.4 | 98.3 | 92.4 | 96.1 | 97.8 | 105 | > 10 | > 10 | > 10 | > 10 | > 10 | 0 | 0 | 0.7 | 0 | 0
7 | C=CC[C@@H]1/C=C(\C)C[C@H](C)C[C@H](OC)[C@H]2O[C@@](O)(C(=O)C(=O)N3CCCC[C@H]3C(=O)O[C@H](/C(C)=C/[C@@H]3CC[C@@H](O)[C@H](OC)C3)[C@H](C)[C@@H](O)CC1=O)[C@H](C)C[C@@H]2OC [tacrolimus] | 99.8 | 101 | 88.8 | 103 | 93.8 | 99.1 | 103 | 96.6 | 100 | 107 | 108 | 99.6 | 103 | 98.2 | 104 | 96.9 | 102 | 98.7 | 104 | 98 | 96.3 | 91.6 | 88.5 | 90.3 | 108 | > 10 | > 10 | > 10 | > 10 | > 10 | 0 | 0 | 0 | 0 | 0
